Experimental data reported in PubChem BioAssay AID1963830 (Molecular Pharmacology Branch, DTP, NCI, 2024).

Tested on: 922993-354-T-J3-PDC complex spheroid viability
Assay: Anticancer human tumor 922993-354-T-J3-PDC patient-derived endometrial carcinoma cell line growth inhibition [POLQ]
Conditions: for IC50: curve of first compound; for viability, T/C: stronger effect = lower value
Outline: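 PDC + HUVEC + MSC complex spheroids; POLQ inhibitors ± partner drugs; top conc. at/near clinical Cmax, else 10 microM (SN-38 1 microM), half-log dilutions; 37 degrees C, 5% CO2.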

[1] = second compound 0.0316 µM, first compound 0.0316 µM
[2] = second compound 0.0316 µM, first compound 0.1 µM
[3] = second compound 0.1 µM, first compound 0.0316 µM
[4] = second compound 0.1 µM, first compound 0.1 µM
[5] = second compound 0.316 µM, first compound 0.0316 µM
[6] = second compound 0.316 µM, first compound 0.1 µM
[7] = second compound 1 µM, first compound 0.0316 µM
[8] = second compound 1 µM, first compound 0.1 µM
[9] = second compound 3.16 µM, first compound 0.0316 µM
[10] = second compound 3.16 µM, first compound 0.1 µM
[11] = second compound 10 µM, first compound 0.0316 µM
[12] = second compound 10 µM, first compound 0.1 µM
[13] = second compound 0.0316 µM, first compound 0.316 µM
[14] = second compound 0.0316 µM, first compound 1 µM
[15] = second compound 0.0316 µM, first compound 3.16 µM
[16] = second compound 0.0316 µM, first compound 10 µM
[17] = second compound 0.1 µM, first compound 0.316 µM
[18] = second compound 0.1 µM, first compound 1 µM
[19] = second compound 0.1 µM, first compound 3.16 µM
[20] = second compound 0.1 µM, first compound 10 µM
[21] = second compound 0.316 µM, first compound 0.316 µM
[22] = second compound 0.316 µM, first compound 1 µM
[23] = second compound 0.316 µM, first compound 3.16 µM
[24] = second compound 0.316 µM, first compound 10 µM
[25] = second compound 1 µM, first compound 0.316 µM
[26] = second compound 1 µM, first compound 1 µM
[27] = second compound 1 µM, first compound 3.16 µM
[28] = second compound 1 µM, first compound 10 µM
[29] = second compound 3.16 µM, first compound 0.316 µM
[30] = second compound 3.16 µM, first compound 1 µM
[31] = second compound 3.16 µM, first compound 3.16 µM
[32] = second compound 3.16 µM, first compound 10 µM
[33] = second compound 10 µM, first compound 0.316 µM
[34] = second compound 10 µM, first compound 1 µM
[35] = second compound 10 µM, first compound 3.16 µM
[36] = second compound 10 µM, first compound 10 µM
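Further: spheroids exposed to the agents for one week.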
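Wherever viability, T/C is given: 100% = DMSO vehicle control wells.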

CC[C@@]1(O)C(=O)OCc2c1cc1n(c2=O)Cc2cc3c(CN(C)C)c(O)ccc3nc2-1 + Nc1ccc(C#CCN(C(=O)Cc2ncc(C(F)(F)F)cc2C(F)(F)F)c2ccc(F)cc2)nn1
IC50 (second compound 0.0316 µM): > 0.1 µM | IC50 (second compound 0.1 µM): > 0.1 µM | IC50 (second compound 0.316 µM): > 0.1 µM | IC50 (second compound 1 µM): > 0.1 µM | IC50 (second compound 3.16 µM): > 0.1 µM | IC50 (second compound 10 µM): 0.0547 µM | viability, T/C (second compound 0.0316 µM, first compound 0.000316 µM): 103% | viability, T/C (second compound 0.0316 µM, first compound 0.001 µM): 105% | viability, T/C (second compound 0.0316 µM, first compound 0.00316 µM): 99.4% | viability, T/C (second compound 0.0316 µM, first compound 0.01 µM): 101% | viability, T/C [1]: 100% | viability, T/C [2]: 89.5% | viability, T/C (second compound 0.1 µM, first compound 0.000316 µM): 102% | viability, T/C (second compound 0.1 µM, first compound 0.001 µM): 105% | viability, T/C (second compound 0.1 µM, first compound 0.00316 µM): 100% | viability, T/C (second compound 0.1 µM, first compound 0.01 µM): 102% | viability, T/C [3]: 102% | viability, T/C [4]: 87.2% | viability, T/C (second compound 0.316 µM, first compound 0.000316 µM): 105% | viability, T/C (second compound 0.316 µM, first compound 0.001 µM): 98.1% | viability, T/C (second compound 0.316 µM, first compound 0.00316 µM): 103% | viability, T/C (second compound 0.316 µM, first compound 0.01 µM): 98.9% | viability, T/C [5]: 103% | viability, T/C [6]: 81.1% | viability, T/C (second compound 1 µM, first compound 0.000316 µM): 105% | viability, T/C (second compound 1 µM, first compound 0.001 µM): 103% | viability, T/C (second compound 1 µM, first compound 0.00316 µM): 100% | viability, T/C (second compound 1 µM, first compound 0.01 µM): 99.2% | viability, T/C [7]: 96% | viability, T/C [8]: 82.2% | viability, T/C (second compound 3.16 µM, first compound 0.000316 µM): 101% | viability, T/C (second compound 3.16 µM, first compound 0.001 µM): 102% | viability, T/C (second compound 3.16 µM, first compound 0.00316 µM): 103% | viability, T/C (second compound 3.16 µM, first compound 0.01 µM): 94.5% | viability, T/C [9]: 92.9% | viability, T/C [10]: 72.9% | viability, T/C (second compound 10 µM, first compound 0.000316 µM): 100% | viability, T/C (second compound 10 µM, first compound 0.001 µM): 91.3% | viability, T/C (second compound 10 µM, first compound 0.00316 µM): 97% | viability, T/C (second compound 10 µM, first compound 0.01 µM): 92.9% | viability, T/C [11]: 71.8% | viability, T/C [12]: 25.9%

Nc1ccn(C2OC(CO)C(O)C2(F)F)c(=O)n1 (stereo not drawn) + Nc1ccc(C#CCN(C(=O)Cc2ncc(C(F)(F)F)cc2C(F)(F)F)c2ccc(F)cc2)nn1
IC50 (second compound 0.0316 µM): < 0.0316 µM | IC50 (second compound 0.1 µM): < 0.0316 µM | IC50 (second compound 0.316 µM): < 0.0316 µM | IC50 (second compound 1 µM): < 0.0316 µM | IC50 (second compound 3.16 µM): < 0.0316 µM | IC50 (second compound 10 µM): < 0.0316 µM | viability, T/C [1]: 25.5% | viability, T/C [2]: 25% | viability, T/C [13]: 20.9% | viability, T/C [14]: 22.2% | viability, T/C [15]: 22.2% | viability, T/C [16]: 17.2% | viability, T/C [3]: 25.9% | viability, T/C [4]: 25.5% | viability, T/C [17]: 18.4% | viability, T/C [18]: 21.9% | viability, T/C [19]: 21.3% | viability, T/C [20]: 19.4% | viability, T/C [5]: 24.9% | viability, T/C [6]: 24% | viability, T/C [21]: 22.1% | viability, T/C [22]: 20.1% | viability, T/C [23]: 22.4% | viability, T/C [24]: 20.5% | viability, T/C [7]: 23.1% | viability, T/C [8]: 19.1% | viability, T/C [25]: 22.7% | viability, T/C [26]: 21.8% | viability, T/C [27]: 21.3% | viability, T/C [28]: 23.3% | viability, T/C [9]: 23.4% | viability, T/C [10]: 18.7% | viability, T/C [29]: 19.1% | viability, T/C [30]: 20.4% | viability, T/C [31]: 21.1% | viability, T/C [32]: 20.8% | viability, T/C [11]: 23.2% | viability, T/C [12]: 18.9% | viability, T/C [33]: 21.9% | viability, T/C [34]: 18.4% | viability, T/C [35]: 20.1% | viability, T/C [36]: 17.5%

O=C(c1cc(Cc2n[nH]c(=O)c3ccccc23)ccc1F)N1CCN(C(=O)C2CC2)CC1 + Nc1ccc(C#CCN(C(=O)Cc2ncc(C(F)(F)F)cc2C(F)(F)F)c2ccc(F)cc2)nn1
IC50 (second compound 0.0316 µM): > 10 µM | IC50 (second compound 0.1 µM): > 10 µM | IC50 (second compound 0.316 µM): > 10 µM | IC50 (second compound 1 µM): > 10 µM | IC50 (second compound 3.16 µM): > 10 µM | IC50 (second compound 10 µM): > 10 µM | viability, T/C [1]: 107% | viability, T/C [2]: 97.6% | viability, T/C [13]: 99.4% | viability, T/C [14]: 101% | viability, T/C [15]: 102% | viability, T/C [16]: 96.7% | viability, T/C [3]: 104% | viability, T/C [4]: 103% | viability, T/C [17]: 100% | viability, T/C [18]: 98% | viability, T/C [19]: 101% | viability, T/C [20]: 95% | viability, T/C [5]: 104% | viability, T/C [6]: 99.5% | viability, T/C [21]: 101% | viability, T/C [22]: 101% | viability, T/C [23]: 102% | viability, T/C [24]: 97.1% | viability, T/C [7]: 99% | viability, T/C [8]: 105% | viability, T/C [25]: 101% | viability, T/C [26]: 96.2% | viability, T/C [27]: 100% | viability, T/C [28]: 100% | viability, T/C [9]: 101% | viability, T/C [10]: 100% | viability, T/C [29]: 99.2% | viability, T/C [30]: 98.6% | viability, T/C [31]: 97.5% | viability, T/C [32]: 101% | viability, T/C [11]: 95.6% | viability, T/C [12]: 96.9% | viability, T/C [33]: 88.8% | viability, T/C [34]: 91.9% | viability, T/C [35]: 94.2% | viability, T/C [36]: 90%

O=c1[nH]cc(F)c(=O)[nH]1 + Nc1ccc(C#CCN(C(=O)Cc2ncc(C(F)(F)F)cc2C(F)(F)F)c2ccc(F)cc2)nn1
IC50 (second compound 0.0316 µM): 5.83 µM | IC50 (second compound 0.1 µM): 5.94 µM | IC50 (second compound 0.316 µM): 5.66 µM | IC50 (second compound 1 µM): 5.75 µM | IC50 (second compound 3.16 µM): 5.48 µM | IC50 (second compound 10 µM): 5.32 µM | viability, T/C [1]: 103% | viability, T/C [2]: 105% | viability, T/C [13]: 105% | viability, T/C [14]: 103% | viability, T/C [15]: 79.9% | viability, T/C [16]: 23.6% | viability, T/C [3]: 106% | viability, T/C [4]: 103% | viability, T/C [17]: 104% | viability, T/C [18]: 102% | viability, T/C [19]: 80.7% | viability, T/C [20]: 24.6% | viability, T/C [5]: 104% | viability, T/C [6]: 104% | viability, T/C [21]: 104% | viability, T/C [22]: 99.6% | viability, T/C [23]: 76.8% | viability, T/C [24]: 23.8% | viability, T/C [7]: 103% | viability, T/C [8]: 98.5% | viability, T/C [25]: 103% | viability, T/C [26]: 102% | viability, T/C [27]: 82.4% | viability, T/C [28]: 19.8% | viability, T/C [9]: 99.8% | viability, T/C [10]: 103% | viability, T/C [29]: 100% | viability, T/C [30]: 102% | viability, T/C [31]: 75.7% | viability, T/C [32]: 21.9% | viability, T/C [11]: 98.6% | viability, T/C [12]: 101% | viability, T/C [33]: 100% | viability, T/C [34]: 96.6% | viability, T/C [35]: 77.4% | viability, T/C [36]: 17.3%
